{"source": "patent US20170266197A1", "about": "“METHODS AND COMPOSITIONS FOR TREATING HEPATITIS B VIRUS INFECTIONS” (Indiana University Research and Technology Corporation, priority 2014, published 2017)", "origin": "cited, not measured here", "system": "chronic hepatitis B infection", "data": [{"substance": "alpha interferon", "values": [{"measurement": "patients who show a long term benefit", "setting": "many patients relapse after treatment is stopped", "value": "about 30%"}, {"measurement": "patients who respond to the treatment", "setting": "of the chronic carriers obtaining this therapy", "value": "about 40%"}, {"measurement": "viral disappearance in treated patients", "setting": "treated patients", "value": "10-20%"}]}]}
